{"source": "patent US20250195491A1", "about": "(AEVIS BIO, INC., priority 2022, published 2025)", "key": {"[1]": {"tested_on": "iNOS and COX-2", "experiment": "iNOS and COX-2 immunoblotting in LPS-stimulated BV-2 cells", "assay_type": "cell-based, mouse", "conditions": "BV-2, 30, 10, or 3.33 μM, LPS 1 μg/mL 24 hours, FIG. 6C", "method": "To further confirm the oxidative stress suppression effect, the content of nitrite released due to an inflammatory response and the expression levels of iNOS, which is an enzyme that produces nitric oxide, and COX-2, which is cyclooxygenase-2, were determined in mouse microglial cells (BV-2, ATCC, Manassas, VA, USA).\nTo determine the content of nitrite and the protein expression levels of iNOS and COX-2, BV-2 was seeded in a 12-well plate (Corning, MD, USA) at 1.5×10^5 cells/well, and cultured using a DMEM medium (Corning, MD, USA) containing 10% fetal bovine serum (Corning, MD, USA) and 100 U/mL of penicillin/streptomycin (Corning, MD, USA) at 37° C. in a 5% CO2 incubator for one day for stabilization. […] 1 μg/mL of LPS (Sigma, USA) was added to all experimental groups excluding the non-inflammation-induced group and allowed to react at 37° C. in a 5% CO2 incubator for 24 hours.\nThe cells from which the cell culture medium was removed were disrupted by adding a RIPA buffer containing a protease inhibitor cocktail (Thermo Fisher Scientific), and centrifuged at 14,000 rpm for 15 minutes at 4° C. to obtain a cell extract. Equal amounts of the cell extract were loaded, and proteins were separated through SDS-PAGE and then transferred to a PVDF membrane. […]"}, "[2]": {"tested_on": "SALL4", "experiment": "SALL4 degradation by immunoblotting in Tera-1 cells", "assay_type": "cell-based, human", "conditions": "0.000128-10 μM, 4 hours, immunoblot, FIG. 4", "from_the_text": "It has been reported that a cereblon (CRBN)-binding therapeutic such as a thalidomide-based compound can cause severe congenital abnormalities such as forelimb shortening or brachydactyly, which are closely associated with the decomposition of SALL4.\nTo this end, the Tera-1 cell line (HTB-105), which is a human embryonic carcinoma cell line, was purchased from the American Type Culture Collection (ATCC, Manassas, VA, USA) and used, and then cultured using a DMEM medium (Corning, MD, USA) supplemented with 10% fetal bovine serum (Corning, MD, USA), 100 U/mL of penicillin (Corning, MD, USA), and 100 100 μg/mL streptomycin (Corning, MD, USA) at 37° C. in a 5% CO2 incubator.\nThe cells were disrupted by adding a RIPA buffer containing a protease inhibitor cocktail (Thermo Fisher Scientific), and centrifuged at 14,000 rpm for 15 minutes at 4° C. to obtain a cell extract. Equal amounts of the cell extract were loaded, and proteins were separated by SDS-PAGE and then transferred to a PVDF membrane. The protein-transferred membrane was blocked using skim milk, incubated with a primary antibody for 3 hours at room temperature, and then incubated with an HRP-conjugated secondary antibody for 1 hour at room temperature. The resulting product was washed with TBS-T three times between steps. […]"}, "[3]": {"tested_on": "iNOS and COX-2", "experiment": "iNOS and COX-2 immunoblotting in LPS-stimulated RAW264.7 cells", "assay_type": "cell-based, mouse", "conditions": "RAW264.7, 3.33, 10, or 30 μM, LPS 60 ng/ml 24 hours, FIG. 6A", "method": "To confirm an oxidative stress suppression effect, the expression levels of iNOS and COX-2 were confirmed.\nTo this end, the RAW264.7 cell line, which is a mouse macrophage cell line, was purchased from the Korea Cell Line Bank (KCLB, Korea) and used, and cultured in a DMEM medium (Corning, MD, USA) supplemented with 10% fetal bovine serum (Corning, MD, USA), 100 U/mL of penicillin (Corning, MD, USA), and 100 100 μg/mL of streptomycin (Corning, MD, USA) at 37° C. in a 5% CO2 incubator.\nAfter 1 hour, the cells were stimulated by treatment with 60 ng/ml of LPS, and further cultured for 24 hours. The cells were disrupted by adding a RIPA buffer containing a protease inhibitor cocktail (Thermo Fisher Scientific) and centrifuged at 14,000 rpm for 15 minutes at 4° C. to obtain a cell extract. Equal amounts of the cell extract were loaded, and proteins were separated through SDS-PAGE and then transferred to a PVDF film. The protein-transferred membrane was blocked using skim milk, incubated with a primary antibody for 3 hours at room temperature, and then incubated with an HRP-conjugated secondary antibody for 1 hour at room temperature.\nThe resulting product was washed with TBS-T three times between steps. […]"}}, "data": [{"compound": "Nc1cccc2c1C(=S)N(C1CCC(=O)NC1=O)C2=O", "note": "(stereo not drawn) [3-MP, 3-thiopomalidomide]", "values": [{"measurement": "expression of oxidative stress-associated proteins (iNOS and COX-2)", "setting": "[1]", "value": "effectively reduced"}, {"measurement": "decomposition of SALL4", "setting": "[2]", "value": "less decomposition of SALL4 than pomalidomide"}, {"measurement": "expression of iNOS and COX-2 (protein)", "setting": "[3]", "value": "inhibits the expression of iNOS and COX-2"}]}]}
